Results taken from patent publication US10106757B2, “Ionic liquid, lubricant, and magnetic recording medium” (DEXERIALS CORPORATION, priority 2016, dated 2018).

Key:
[1] = Thermal stability by TG/DTA measurement; format: physicochemical; conditions: for Weight reduction temperatures higher than / thermal stability improved compared with Z-DOL: compared with Z-DOL (Comparative Example 5C); for Weight reduction temperatures higher than / thermal stability improved compared with Z-TETRAOL: compared with Z-TETRAOL (Comparative Example 6C); for Weight reduction temperature 5% / Weight reduction temperature 10% / Weight reduction temperature 20%: TG/DTA, 30-600° C., 10° C./min, air 200 mL/min
[2] = in acetonitrile; cited from earlier work
[3] = Solubility test in fluorine-based solvent Vertrel XF; format: physicochemical; conditions: 25° C., 0.2 parts by mass added to 100 parts, ultrasonic 5 minutes, left 1 day, visually observed
Method: (§1) To a predetermined amount of Vertrel XF or n-hexane, the ionic liquid, Z-DOL, or Z-TETRAOL was added. Ultrasonic waves were applied to the resultant mixture for 5 minutes, followed by leaving the mixture to stand for 1 day. The solubility was visually observed.
Specifically, 0.2 parts by mass of the ionic liquid, Z-DOL, or Z-TETRAOL was added to 100 parts by mass of Vertrel XF (25° C.). After applying ultrasonic waves to the resultant for 5 minutes, the resultant was left to stand for 1 day. Thereafter, the solubility was visually observed and evaluated based on the following evaluation criteria.
[Evaluation Criteria (Fluorine-Based Solvent)]
• 0.2% by mass or greater:
Soluble with addition of 0.2 parts by mass • Less than 0.2% by mass:
Insoluble with addition of 0.2 parts by mass
(§2) Note that, the solubility was visually observed, and it was judged as soluble when it was transparent. Moreover, it was judged as not soluble (insoluble) when it was opaque or insoluble components were observed.

[4] = Solubility test in hydrocarbon-based solvent n-hexane; format: physicochemical; conditions: 25° C., 0.5 parts by mass added to 100 parts, ultrasonic 5 minutes, left 1 day, visually observed
Method: as §1
In case of n-hexane, similarly, 0.5 parts by mass of the ionic liquid, Z-DOL, or Z-TETRAOL was added to 100 parts by mass of n-hexane at 25° C. After applying ultrasonic waves to the resultant for 5 minutes, the resultant was left to stand for 1 day. Thereafter, the solubility was visually observed and evaluated based on the following evaluation criteria.
[Evaluation Criteria (Hydrocarbon-Based Solvent)]
• 0.5% by mass or greater:
Soluble with addition of 0.5 parts by mass • Less than 0.5% by mass:
Insoluble with addition of 0.5 parts by mass
as §2

Compound: CCCCCCCCCCCCn1cc[n+](CCCCCCCCCCCC)c1CCCCCCCCCCC.O=S(=O)([N-]S(=O)(=O)C(F)(F)C(F)(F)C(F)(F)C(F)(F)F)C(F)(F)C(F)(F)C(F)(F)C(F)(F)F
- Weight reduction temperatures higher than / thermal stability improved compared with Z-DOL [1]: ≥ 170 °C
- Weight reduction temperatures higher than / thermal stability improved compared with Z-TETRAOL [1]: ≥ 90 °C

Compound: CCCCCCCCCCCCCCCCCCn1cc[n+](CCCCCCCCCCCCCCCCCC)c1CCCCCCCCCCCCCCCCC.O=S(=O)([N-]S(=O)(=O)C(F)(F)C(F)(F)C(F)(F)C(F)(F)F)C(F)(F)C(F)(F)C(F)(F)C(F)(F)F
- Weight reduction temperatures higher than / thermal stability improved compared with Z-DOL [1]: ≥ 140 °C
- Weight reduction temperatures higher than / thermal stability improved compared with Z-TETRAOL [1]: ≥ 60 °C

Compound: O=S(=O)(C(S(=O)(=O)C(F)(F)F)S(=O)(=O)C(F)(F)F)C(F)(F)F [(CF3SO2)3CH]
- pKa [2]: −3.7

Compound: CCCCCCCCCCCCCCCCCC[n+]1ccn(CCCC)c1.O=S1(=O)[N-]S(=O)(=O)C(F)(F)C(F)(F)C1(F)F [Comp. Ex. 2A, hexafluorocyclopropane-1,3-bis(sulfonyl)imide-1-butyl-3-n-octadecylimidazolium, reference compound]
- Solubility Vertrel XF [3]: < 0.2% by mass
- Solubility n-hexane [4]: < 0.5% by mass

Compound: CCCCCCCCCCCCn1cc[n+](CCCCCCCCCCCC)c1CCCCCCCCCCC.O=S(=O)([N-]S(=O)(=O)C(F)(F)C(F)(F)C(F)(F)C(F)(F)F)C(F)(F)C(F)(F)C(F)(F)C(F)(F)F [Ex. 2A, bis(nonafluorobutanesulfonyl)imide-1,3-didodecyl-2-undecylimidazolium]
- Solubility Vertrel XF [3]: ≥ 0.2% by mass
- Solubility Vertrel XF ([3]; listed as Example 2A): ≥ 0.2 % by mass
- Solubility n-hexane [4]: ≥ 0.5% by mass
- Solubility n-hexane ([4]; listed as Example 2A): ≥ 0.5 % by mass
- Weight reduction temperature 5% [1]: 335.7 °C
- Weight reduction temperature 10% [1]: 368.9 °C
- Weight reduction temperature 20% [1]: 395.7 °C

Compound: CCCCCCCCCCCCCCCCCCn1cc[n+](CCCCCCCCCCCCCCCCCC)c1CCCCCCCCCCCCCCCCC.O=S(=O)([N-]S(=O)(=O)C(F)(F)C(F)(F)C(F)(F)C(F)(F)F)C(F)(F)C(F)(F)C(F)(F)C(F)(F)F [Ex. 4A, bis(nonafluorobutanesulfonyl)imide-1,3-dioctadecyl-2-heptadecylimidazolium]
- Solubility Vertrel XF [3]: < 0.2% by mass
- Solubility Vertrel XF ([3]; listed as Example 4A): less than 0.2 % by mass
- Solubility n-hexane [4]: ≥ 0.5% by mass
- Solubility n-hexane ([4]; listed as Example 4A): ≥ 0.5 % by mass
- Weight reduction temperature 5% [1]: 300.1 °C
- Weight reduction temperature 10% [1]: 337.3 °C
- Weight reduction temperature 20% [1]: 385.8 °C

Compound: nonafluorobutanesulfonic acid-1,3-didodecyl-2-undecylimidazolium
- Weight reduction temperature 5% [1]: 287.9 °C
- Weight reduction temperature 10% [1]: 331.8 °C
- Weight reduction temperature 20% [1]: 378.4 °C
- Weight reduction temperatures higher than / thermal stability improved compared with Z-DOL [1]: ≥ 130 °C
- Weight reduction temperatures higher than / thermal stability improved compared with Z-TETRAOL [1]: ≥ 40 °C

Compound: nonafluorobutanesulfonic acid-1,3-dioctadecyl-2-heptadecylimidazolium
- Weight reduction temperature 5% [1]: 279.7 °C
- Weight reduction temperature 10% [1]: 310.9 °C
- Weight reduction temperature 20% [1]: 361.9 °C
- Weight reduction temperatures higher than / thermal stability improved compared with Z-DOL [1]: ≥ 110 °C
- Weight reduction temperatures higher than / thermal stability improved compared with Z-TETRAOL [1]: ≥ 40 °C
